“Also recorded” adds a separate entry of the source.
Experiments:
[1] = cited from earlier work
[2] = test system: AHR-dependent transcription of the CYP1A1 gene; experiment: CYP1A1 induction in mouse macrophages; assay type: cell-based
Protocol: (§1) Mouse macrophages were also used to test AHR-dependent transcription of the CYP1A1 gene in vivo. Finally, the activity of exemplary compounds of Formula (I) described herein was tested in the human […] cell line U937. The U937 cell line is derived from a patient with diffuse histiocytic lymphoma. Tables 2-4 summarize structure-activity relationship data collected for exemplary, non-limiting compounds of Formula (I) described herein.

[3] = Liver microsomal stability (LCMS/MS); assay type: in vitro ADME; details: in the presence of liver microsomes
[4] = Plasma stability (LCMS/MS); assay type: in vitro ADME; details: incubated in plasma
[5] = target: T1, aryl hydrocarbon receptor (AHR) (Homo sapiens, UniProt P35869); experiment: XRE-driven luciferase reporter assay, human HepG2; details: for XRE luciferase Emax (fold): fold over vehicle
T1 sequence (P35869 11-848): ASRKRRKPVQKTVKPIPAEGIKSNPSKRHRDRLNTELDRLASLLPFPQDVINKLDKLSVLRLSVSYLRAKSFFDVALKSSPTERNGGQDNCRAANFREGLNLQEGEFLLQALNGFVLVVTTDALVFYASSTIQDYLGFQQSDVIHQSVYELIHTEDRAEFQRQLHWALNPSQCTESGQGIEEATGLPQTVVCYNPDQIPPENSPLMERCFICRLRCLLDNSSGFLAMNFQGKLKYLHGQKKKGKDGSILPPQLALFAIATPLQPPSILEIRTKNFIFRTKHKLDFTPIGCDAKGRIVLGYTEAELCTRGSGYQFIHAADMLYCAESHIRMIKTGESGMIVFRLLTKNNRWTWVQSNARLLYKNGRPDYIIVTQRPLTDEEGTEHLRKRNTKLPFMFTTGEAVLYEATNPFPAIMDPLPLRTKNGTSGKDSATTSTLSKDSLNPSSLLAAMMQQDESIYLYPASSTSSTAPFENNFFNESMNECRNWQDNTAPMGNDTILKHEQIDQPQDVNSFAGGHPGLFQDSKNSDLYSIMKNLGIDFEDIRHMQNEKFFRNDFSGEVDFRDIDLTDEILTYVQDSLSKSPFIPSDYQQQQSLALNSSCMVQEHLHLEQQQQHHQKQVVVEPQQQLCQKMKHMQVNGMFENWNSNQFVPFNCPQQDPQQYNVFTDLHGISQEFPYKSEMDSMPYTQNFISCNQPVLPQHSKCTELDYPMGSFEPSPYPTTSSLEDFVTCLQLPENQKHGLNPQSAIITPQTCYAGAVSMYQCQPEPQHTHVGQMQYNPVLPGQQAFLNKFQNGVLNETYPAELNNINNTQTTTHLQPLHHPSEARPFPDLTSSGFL
Protocol: The Human HepG2 cell line is a human liver cancer cell line, and provide a relevant in vitro AHR activity model. These Hep2G cells have been modified to stably express an AHR-responsive (XRE) firefly luciferase reporter gene to give Hep2G-XRE cells. The expression of luciferase should primarily reflect AHR-dependent transcription controlled by XRE.
Transfected cells were treated with AhR agonist (10^−5-10^−12) for 4.5 h in full medium. Cells were lysed and luciferase was activated using the Luciferase Assay System (Promega). Luminescence signals were measured with a FluroStar Omega microplate reader. Luminescence signals of compound treated groups were normalized to vehicle (DMSO) treated control and plotted as concentration dependent fold changes.

cyp1a1 [6] = experiment: cyp1a1 expression by q-PCR in mouse Hepa-1c1c7 cells; assay type: cell-based
Protocol: (§2) RNA was extracted using TRIzol (Invitrogen) following manufacturer's instructions and 0.1 μg of RNA was converted to cDNA using a high capacity cDNA reverse transcription kit (Invitrogen). qPCR was performed on the Applied Biosystems 7900 using TaqMan® Universal PCR Master Mix (Life Technologies) with TaqMan® (Life Technologies) primers against cyp1a1 (Mm00487218_m1), AhR (Mm00478932_m1), IL-22 (Mm01226722_g1), Foxp3 (Mm00475162_m1), IL-10 (Mm01288386_m1), TNF-a (Mm00443258_m1), IFN-r (Mm01168134_m1). The fold increase from experimental groups to control was calculated using the delta-delta CT method with 18S (Mm00446186_m1) as an internal reference gene. In vitro and in vivo activation of the AhR singling pathway was confirmed by q-PCR characterization of cyp1a1. For in vitro induction, mouse Hepa-1c1c7 were cultured to confluence in 24 well plates in full DMEM followed by 24 hours incubation in tryptophan deficient media. Cells were treated with vehicle control (DMSO), ITE, compound 108, or compound 109 (10 nM-10 μM) for 8 hours in tryptophan deficient media. At the end of treatment, cells were lysed in TRIzol for RNA isolation. To monitor in vivo induction, (0.1-1000 μg) compound 109 was given per mouse via oral gavage in 100 μl of vehicle (1% HPMC, 1% polysorbate 80). After 12 hours, liver, colon, spleen and leukocytes from blood were collected and lysed in TRIzol (Invitrogen) for q-PCR analysis.

cyp1a1 [7] = experiment: In vivo tissue cyp1a1 induction after oral gavage (PD profile); set-up: species or system mouse; details: mice, oral gavage 0.1-1000 μg, 12 hours
Protocol: as §2, with “After 12 hours, liver, colon, spleen and leukocytes from blood were collected and lysed in TRIzol (Invitrogen) for q-PCR analysis.” left out

DSS induced colitis = DSS induced colitis in mice; assay type: in vivo, C57BL/6 mice; details: 1 μg/day PO; day 11
Protocol: C57BL/6 (8-10 week, male) mice were administered drinking water supplemented with 3% (wt/vol) dextran sodium sulfate (DSS; MP Biomedicals) for 7 days followed by a 13 day recovery period with unsupplemented drinking water. Compound 109 or compound 108 were suspended in vehicle (1% HPMC and 1% polysorbate 80 in water) and given daily by oral gavage (1 ug/mouse in 100 uL), starting at day 0. Control mice were administered 100 μL vehicle. Body weight and disease activity index (DAI) were recorded daily. DAI was determined by combining scores of weight loss, stool consistency, blood in stool, activity, and appearance.^1 Scores were determined as follows: change in weight (0: <1%, 1: 1-10%, 2: 10-18%, 3: 18-20%); stool consistency (0: normal, 1: loose stools, 2: diarrhea); stool blood (0: negative, 1: trace blood, 2: bloody stool, 3: gross bleeding), activity (0: normal, 1: low activity, 2: hiding, 3: no response to gentle stimuli) and appearance (0: normal, 1: rigor, 2: hunched posture). On day 7 and day 11, mice were euthanized and colon were removed for length measurement, histology, RNA isolation, and lamina propria mononuclear cell (LPMC) extraction as detailed below.
Dissected colon were cut longitudinally and rolled using the Swiss roll method with the distal side in the center.^2,3 Colons were fixed overnight in 10% neutral buffered formalin, processed for paraffin embedding and sectioned at 5 μm thickness. To visualize and quantify the inflammatory response and crypt loss, hematoxylin and eosin staining (H&E) was performed. Briefly, sections were cleared with xylene, rehydrated through alcohol gradient, stained by hematoxylin, washed by acid and ammonium alcohol, rinsed in water and exposed to Eosin followed by dehydrating through graded alcohols and cleared in xylene. All sections were mounted using Permount (Fisher Scientific) and visualized using a BX41 microscope (Olympus). For histological scoring, 3 transverse sections of Swiss roll were chosen and 9 (100×) images were captured for each section. Images were analyzed for inflammation and crypt structure and scored by a blind observer as follows: inflammation (0: rare inflammatory cells in the lamina propria; 1: increased numbers of inflammatory cells in the lamina propria; 2: confluence of inflammatory cells extending in to the submucosa; 3: transmural extension of the inflammatory infiltrate.); crypt loss (0: none; 1: basal 1/3 damaged; 2: basal 2/3 damaged; 3: only surface epithelium intact; 4: entire crypt and epithelium lost). Inflammation and crypt loss were scored separately and multiplied by a factor of 1-4 to adjust for impacted area of tissue section (1: 0-25%; 2: 25.1-50% affected; 3: 50.1-75% affected; 4: >75% affected).^1,4 To examine goblet cell number, sections were stained by a commercial periodic acid-Schiff (PAS) and Alcian blue kit (Fisher Scientific). For quantification, 3 transverse sections of Swiss roll were chosen per colon and 5 random images at 200x were taken per section in the distal region of the colon. Goblet cell number was counted per image and normalized to colon length by a blind observer using image J.^5
Colonic epithelium and lamina propria cells were isolated as previously described.^6,7 Briefly, colons were dissected and washed with HBSS to remove fecal contents. Colon were opened longitudinally and cut into 2 cm segments. […]

[8] = target: T2, aryl hydrocarbon receptor (AHR) (Mus musculus, UniProt P30561); experiment: XRE-driven luciferase reporter assay, mouse Hepa1c1c7; assay type: cell-based
T2 construct: Transfection was performed with 150 ng XRE-luciferase plasmid (Promega); endogenous in cells; host or cells: Hepa-1c1c7 (mouse hepatoma cell line)
T2 sequence (P30561 10-805 limits assumed): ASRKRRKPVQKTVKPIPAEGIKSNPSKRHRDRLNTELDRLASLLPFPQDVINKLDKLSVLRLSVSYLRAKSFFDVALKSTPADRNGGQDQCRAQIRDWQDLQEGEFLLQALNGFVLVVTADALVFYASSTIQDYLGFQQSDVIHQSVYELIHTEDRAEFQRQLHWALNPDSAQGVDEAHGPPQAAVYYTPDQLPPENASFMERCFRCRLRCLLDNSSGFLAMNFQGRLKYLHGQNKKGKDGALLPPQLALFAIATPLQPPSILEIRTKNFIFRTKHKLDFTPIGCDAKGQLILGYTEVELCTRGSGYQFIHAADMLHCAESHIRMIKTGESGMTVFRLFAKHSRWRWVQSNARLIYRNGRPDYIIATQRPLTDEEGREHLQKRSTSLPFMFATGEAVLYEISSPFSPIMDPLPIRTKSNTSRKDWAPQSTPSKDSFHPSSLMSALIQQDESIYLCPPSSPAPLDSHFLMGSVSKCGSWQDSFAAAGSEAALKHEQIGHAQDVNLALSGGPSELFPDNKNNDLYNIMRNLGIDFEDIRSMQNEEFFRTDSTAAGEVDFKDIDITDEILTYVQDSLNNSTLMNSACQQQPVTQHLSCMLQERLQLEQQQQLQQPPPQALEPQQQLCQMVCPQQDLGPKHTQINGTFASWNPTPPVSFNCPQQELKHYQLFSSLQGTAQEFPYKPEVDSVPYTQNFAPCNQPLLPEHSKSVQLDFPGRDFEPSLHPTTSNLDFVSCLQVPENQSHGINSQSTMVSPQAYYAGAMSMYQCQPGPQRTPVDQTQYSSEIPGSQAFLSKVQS
T2 sequence (P53762 whole entry partner): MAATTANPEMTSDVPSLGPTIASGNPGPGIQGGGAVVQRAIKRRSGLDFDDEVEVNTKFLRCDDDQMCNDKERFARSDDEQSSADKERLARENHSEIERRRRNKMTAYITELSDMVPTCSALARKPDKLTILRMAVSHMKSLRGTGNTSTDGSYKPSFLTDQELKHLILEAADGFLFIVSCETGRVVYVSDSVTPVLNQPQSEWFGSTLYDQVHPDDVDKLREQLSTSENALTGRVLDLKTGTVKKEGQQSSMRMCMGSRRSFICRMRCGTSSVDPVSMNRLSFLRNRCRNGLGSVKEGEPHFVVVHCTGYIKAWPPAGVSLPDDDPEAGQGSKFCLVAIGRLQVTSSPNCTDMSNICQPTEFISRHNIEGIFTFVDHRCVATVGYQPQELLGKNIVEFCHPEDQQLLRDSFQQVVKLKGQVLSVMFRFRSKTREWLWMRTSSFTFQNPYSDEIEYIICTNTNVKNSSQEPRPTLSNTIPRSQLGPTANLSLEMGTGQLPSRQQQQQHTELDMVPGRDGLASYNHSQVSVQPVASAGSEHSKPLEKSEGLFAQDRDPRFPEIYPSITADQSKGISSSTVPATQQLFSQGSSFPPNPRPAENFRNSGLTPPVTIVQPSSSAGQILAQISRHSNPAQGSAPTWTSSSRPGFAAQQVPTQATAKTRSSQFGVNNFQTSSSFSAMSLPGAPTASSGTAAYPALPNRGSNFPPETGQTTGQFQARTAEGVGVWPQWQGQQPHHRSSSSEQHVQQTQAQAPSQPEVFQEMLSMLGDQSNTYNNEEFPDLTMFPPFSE
Protocol: Human HepG2 or mouse Hepa-1c1c7 cells were seeded in 96 well opaque plates at 75,000 cells per well in full medium (DMEM+10% FBS) for 24 hours. Transfection was performed with 150 ng XRE-luciferase plasmid (Promega) with 4:1 Fugene to DNA ratio for 18 hours in Opti-MEM. Transfected cells were treated with AhR agonist (10^−5-10^−12) for 4.5 h in full medium. Cells were lysed and luciferase was activated using the Luciferase Assay System (Promega). Luminescence signals were measured with a FluroStar Omega microplate reader. Luminescence signals of compound treated groups were normalized to vehicle (DMSO) treated control and plotted as concentration dependent fold changes.

[9] = test system: AHR-dependent transcription of the CYP1A1 gene; experiment: CYP1A1 induction in human U937 cells; assay type: cell-based; details: Human U937, 1 μM
Protocol: as §1

AhR [10] = target: T3, AhR (Mus musculus, UniProt P30561); experiment: AhR nuclear translocation assay, mouse Hepa-1c1c7; assay type: cell-based; details: mouse Hepa-1c1c7, 10 μM, 90 minutes
T3 construct: endogenous in cells; host or cells: Hepa-1c1c7 (mouse hepatoma cell line)
T3 sequence (P30561 10-805 limits assumed): as the sequence (P30561 10-805 limits assumed) above
T3 sequence (P53762 whole entry partner): as the sequence (P53762 whole entry partner) above
Protocol: (§3) Mouse Hepa-1c1c7 or human HepG2 cells were seeded in 8 well chamber slides followed by 24 hours incubation in tryptophan deficient media (HBSS with Ca^2+ and Mg^2+, 10% heat inactivated FBS, 1× non-essential amino acids, 1× sodium pyruvate, 4.5 g/L glucose). Cells were treated with vehicle control (DMSO) or 10 μM ITE, compound 108, or compound 109 for 90 minutes in tryptophan deficient media. Following treatment, cells were fixed in 4% formaldehyde and processed according to standard immunofluorescence staining protocol. Primary anti-AhR antibody was applied at 1:100 dilution (Enzo, BML-SA210) and Alexa488 conjugated secondary antibody was applied at 1:500 dilution (Cell Signaling, 4412S). Actin was stained using Alexa 568 conjugated Phalloidin (Fisher). Samples were mounted in anti-fade mounting medium supplemented with DAPI for nuclear staining and imaged with confocal microscopy (Leica SP5×MP, 63× oil lens).

AhR [11] = target: T4, AhR (Homo sapiens, UniProt P35869); experiment: AhR nuclear translocation assay, human HepG2; assay type: cell-based; details: human HepG2, 10 μM, 90 minutes
T4 construct: endogenous in cells; host or cells: HepG2 (human liver cancer cell line)
T4 sequence (P35869 11-848): T1 sequence (P35869 11-848)
Protocol: as §3

[12] = within 8 h; cited from earlier work
[13] = XRE luciferase EC50, Human HepG2, least square curve fitting, >10,000 = does not reach 50% of Emax of ITE at 10 μM (highest concentration tested)

SMILES: Clc1cc2c(cc1Cl)Oc1cc(Cl)c(Cl)cc1O2 [TCDD, 2,3,7,8-tetrachlorodibenzo-p-dioxin]
- half-life [1]: 2,840 days

SMILES: O=C(c1cccc(-c2ccccc2)n1)c1c[nH]c2ccccc12 [Compound 113, 1H-indol-3-yl-(6-phenyl-2-pyridyl)methanone]
- CYP1A1 induction (% of ITE ± SEM) ([2]; 50 nM): 91 ± 7 % of ITE
- CYP1A1 induction (% of ITE ± SEM) ([2]; 5 μM): 97 ± 9 % of ITE
- liver microsomal stability [3]: rapidly metabolized
- plasma stability [4]: stable
- XRE luciferase Emax (footnote c) ([5]; Human HepG2, Emax defined as fold increase at highest concentration tested (10 μM)): (114)^c fold
- EC50 ([5]; XRE luciferase EC50 (footnote a), Human HepG2, EC50 defined as concentration induced 50% of Emax of ITE): 12.1 nM
- EC50 [5, 13]: 12 nM

SMILES: O=C(c1cccc(C(F)(F)F)n1)c1c[nH]c2ccccc12 [Compound 109, 1H-indol-3-yl-[6-(trifluoromethyl)-2-pyridyl]methanone]
- CYP1A1 induction (% of ITE ± SEM) ([2]; 50 nM): 124 ± 5 % of ITE
- CYP1A1 induction (% of ITE ± SEM) ([2]; 5 μM): 90 ± 17 % of ITE
- cyp1a1 expression relative to ITE and compound 108 (cyp1a1 [6]; mouse Hepa-1c1c7, 10 nM): significantly increased cyp1a1 expression
- cyp1a1 expression (qPCR) (cyp1a1 [6]; mouse Hepa-1c1c7, 10 nM-10 μM, 8 hours): induced AhR-dependent cyp1a1 expression; also recorded: dose dependent induction of cyp1a1 expression
- cyp1a1 induction in liver and colon tissue (cyp1a1 [7]): induced dose-dependent cyp1a1; also recorded: Robust, dose-dependent cyp1a1 induction
- cyp1a1 induction in spleen and blood (WBC) (cyp1a1 [7]): limited cyp1a1 induction was observed in spleen; also recorded: cyp1a1 regulation only at the highest administered doses
- colon IL-22 expression, upregulation (DSS induced colitis): 10 fold
- EC50 [5, 13]: 2.3 nM

SMILES: COC(=O)c1csc(C(=O)c2c[nH]c3ccccc23)n1 [ITE, 2-(1H-indol-3-ylcarbonyl)-4-thiazolecarboxylic acid methyl ester, reference compound]
- EC50 [8]: 30 nM
- XRE luciferase Emax (fold) [8]: 79 fold
- CYP1A1 induction (% of ITE ± SEM) ([2]; 50 nM): 100 % of ITE
- CYP1A1 induction (% of ITE ± SEM) ([2]; 5 μM): 100 % of ITE
- CYP1A1 induction (% of ITE ± SEM) [9]: 100 % of ITE
- liver microsomal stability [3]: highly unstable
- plasma stability [4]: highly unstable
- AhR nuclear translocation (AhR [10]): localized in the nucleus; also recorded: rapid nuclear enrichment of AhR
- AhR nuclear translocation (AhR [11]): localized in the nucleus; also recorded: rapid nuclear enrichment of AhR
- ITE inactivated in cell culture [12]: 75%
- XRE luciferase Emax (fold) ([5]; Human HepG2): 63 fold
- EC50 [5, 13]: 5.3 nM

SMILES: COC(=O)c1cccc(C(=O)c2n[nH]c3ccccc23)c1 [reference compound]
- CYP1A1 induction (% of ITE ± SEM) ([2]; 50 nM): 14 ± 4 % of ITE
- CYP1A1 induction (% of ITE ± SEM) ([2]; 5 μM): 90 ± 2 % of ITE
- CYP1A1 induction (% of ITE ± SEM) [9]: 48 ± 6 % of ITE
- XRE luciferase Emax (fold) ([5]; Human HepG2): 117 fold
- EC50 [5, 13]: 680 nM

Source: patent US12152016B2, “Aryl hydrocarbon receptor modulators and uses thereof” (Beth Israel Deaconess Medical Center, Inc., priority 2018, dated 2024)
